Laboratory results: publication PMC7129073 (Clinical Microbiology and Infection, 2015)
In brackets after ≈: the same amount, converted by molar mass.

Legend:
B. distasonis = experiment: NCCLS broth microdilution, beta-lactamase positive isolates; assay type: cell-based, Bacteroides distasonis; details: 48 hr
B. ovatus = experiment: as above; assay type: cell-based, Bacteroides ovatus; details: 48 hr
B. vulgatus = experiment: as above; assay type: cell-based, Bacteroides vulgatus; details: 48 hr
B. thetaiotaomicron = experiment: as above; assay type: cell-based, Bacteroides thetaiotaomicron; details: 48 hr
B. fragilis = experiment: as above; assay type: cell-based, Bacteroides fragilis; details: 48 hr
[1] = tested on: inducible Enterobacteriaceae; experiment: SMART 2003, intraabdominal isolates; assay type: cell-based
E. coli [2] = experiment: SMART 2003 Europe, microdilution; assay type: cell-based, Escherichia coli; details: 1106 isolates
Klebsiella = experiment: SMART 2003 Europe, microdilution; assay type: cell-based, Klebsiella spp.; details: 341 isolates
S. aureus ATCC 25923 = experiment: Cefoxitin Neo-Sensitabs tablet diffusion, control strain; assay type: cell-based; details: Staphylococcus aureus, ATCC25923, read-out: zone diameter
S. aureus ATCC 29213 = experiment: as above; assay type: cell-based; details: Staphylococcus aureus, ATCC29213, read-out: zone diameter
Enterobacteriaceae = experiment: SMART 2003 Europe, microdilution; assay type: cell-based; details: 1948 isolates
K. pneumoniae [3] = experiment: MIC; assay type: cell-based, Klebsiella pneumoniae; details: Klebsiella pneumoniae
N.gonorrhoeae = experiment: microbe, parasite or virus in culture; assay type: cell-based; details: Neisseria gonorrhoeae
Nocardia spp. = experiment: E-test on Mueller Hinton agar, 81 clinical isolates; assay type: cell-based; details: Nocardia
S. pneumoniae = experiment: PROTEKT Italy, NCCLS microdilution; assay type: cell-based, Streptococcus pneumoniae
Shigella spp. = experiment: Disk diffusion, stool isolates Tehran; assay type: cell-based; details: 96 isolates
E. coli [4] = experiment: Resistance of UTI isolates of renal transplant recipients; assay type: cell-based, Escherichia coli; details: 75 isolates
Acinetobacter = experiment: Disk diffusion; assay type: cell-based; details: 37 isolates selected as resistant to beta-lactams
[5] = tested on: viridans group streptococci (VGS); experiment: MIC; assay type: cell-based
Gram-negative rods = experiment: Microscan MIC, blood culture isolates; assay type: cell-based
Pseudomonas spp. = experiment: MIC; assay type: cell-based
Pseudomonas aeruginosa = experiment: MIC, strains from cystic fibrosis patients; details: by MIC
K. pneumoniae [6] = experiment: E-test susceptibility; assay type: cell-based, Klebsiella pneumoniae
K. oxytoca = experiment: E-test susceptibility; assay type: cell-based, Klebsiella oxytoca
N. farcinica strain = experiment: E-test on Mueller-Hinton agar; assay type: cell-based; details: Nocardia farcinica
E. coli [7] = experiment: E-test susceptibility; assay type: cell-based, Escherichia coli

SMILES: C[C@]1(Cn2ccnn2)[C@H](C(=O)O)N2C(=O)C[C@H]2S1(=O)=O [Tz, Tazobactam]
- isolates inhibited at 8 mg/L (B. distasonis): 50%
- isolates inhibited at 16 mg/L (B. distasonis): 100%
- isolates inhibited at =/< 4 mg/L (B. distasonis): 25%
- isolates inhibited at 8 mg/L (B. ovatus): 56%
- isolates inhibited at 16 mg/L (B. ovatus): 86%
- isolates inhibited at =/< 4 mg/L (B. ovatus): 23%
- isolates inhibited at 8 mg/L (B. vulgatus): 83%
- isolates inhibited at 16 mg/L (B. vulgatus): 100%
- isolates inhibited at =/< 4 mg/L (B. vulgatus): 50%
- isolates inhibited at 16 mg/L (B. thetaiotaomicron): 100%
- isolates inhibited at =/< 4 mg/L (B. thetaiotaomicron): 42%
- isolates inhibited at 8 mg/L (B. fragilis): 97%
- isolates inhibited at 16 mg/L (B. fragilis): 98%
- isolates inhibited at =/< 4 mg/L (B. fragilis): 86%

SMILES: CO[C@@]1(NC(=O)Cc2cccs2)C(=O)N2C(C(=O)O)=C(COC(N)=O)CS[C@@H]21 [cefoxitin]
- % susceptible ([1]; A/P (N = 200)): 27%
- % susceptible ([1]; EU (N = 354)): 29%
- % susceptible ([1]; LA (N=113)): 30%
- % susceptible ([1]; NA (N = 163)): 23%
- per cent susceptible (E. coli [2]): 94%
- per cent susceptible (Klebsiella): 92%
- zone of inhibition at 10 µg/disc (S. aureus ATCC 25923): 22 to 23 mm
- zone of inhibition at 30 µg/disc (S. aureus ATCC 25923): 27 to 29 mm
- zone of inhibition at 60 µg/disc (S. aureus ATCC 25923): 32 to 33 mm
- zone of inhibition at 10 µg/disc (S. aureus ATCC 29213): 21 to 23 mm
- zone of inhibition at 30 µg/disc (S. aureus ATCC 29213): 27 to 29 mm
- zone of inhibition at 60 µg/disc (S. aureus ATCC 29213): 29 to 33 mm
- per cent susceptible (Enterobacteriaceae): 82%
- MIC (K. pneumoniae [3]): > 64 µg/mL

SMILES: CO/N=C(\C(=O)N[C@@H]1C(=O)N2C(C(=O)O)=C(CSc3nc(=O)c(=O)[nH]n3C)CS[C@H]12)c1csc(N)n1 [ceftriaxone]
- MIC (N.gonorrhoeae; strain 76mu6): 0.12 µg/mL (≈ 0.216 µM)
- MIC (N.gonorrhoeae; strain 92mu6): 0.015 µg/mL (≈ 0.027 µM)
- MIC (N.gonorrhoeae; strain 92mu13): 0.008 µg/mL (≈ 0.0144 µM)
- MIC50 (Nocardia spp.): 8 µg/mL (≈ 14.4 µM)
- MIC90 (Nocardia spp.): > 256 µg/mL
- % susceptible ([1]; A/P (N = 200)): 60%
- % susceptible ([1]; EU (N = 354)): 79%
- % susceptible ([1]; LA (N=113)): 71%
- % susceptible ([1]; NA (N = 163)): 75%
- susceptible (S. pneumoniae; year 1: 2002): 88.9%
- susceptible (S. pneumoniae; year 2: 2003): 93.7%
- per cent susceptible (Klebsiella): 89%
- sensitive (Shigella spp.): 100%
- rate of resistance (E. coli [4]): 1%
- resistant isolates (Acinetobacter): 75.7%
- MIC50 [5]: 0.06 µg/mL (≈ 0.108 µM)
- MIC90 [5]: 0.5 µg/mL (≈ 0.902 µM)
- per cent susceptible (Enterobacteriaceae): 91%

SMILES: C[C@@H](O)[C@H]1C(=O)N2C(C(=O)O)=C(S[C@@H]3CN[C@H](C(=O)N(C)C)C3)[C@H](C)[C@H]12 [meropenem]
- susceptible strains (n/N) (Gram-negative rods): 16/16
- susceptible strains (Pseudomonas spp.): 98%
- % susceptible ([1]; A/P (N = 200)): 100%
- % susceptible ([1]; EU (N = 354)): 99%
- % susceptible ([1]; LA (N=113)): 98%
- % susceptible ([1]; NA (N = 163)): 99%
- Susceptible isolates (Pseudomonas aeruginosa): 96%
- per cent susceptible (E. coli [2]): >99%
- Susceptible isolates (K. pneumoniae [6]; ICU): 100/100%
- Susceptible isolates (K. pneumoniae [6]; non ICU): 100/100%
- per cent susceptible (Klebsiella): 99%
- Susceptible isolates (K. oxytoca; ICU): 100/100%
- Susceptible isolates (K. oxytoca; non ICU): 100/100%
- MIC (N. farcinica strain): > 32 µg/mL
- Susceptible isolates (E. coli [7]; ICU, SRGA breakpoints, tigecycline tentative S ≤2 μg/ml): 100%
- Susceptible isolates (E. coli [7]; non ICU): 99%
- resistant isolates (Acinetobacter): 0.0%
- per cent susceptible (Enterobacteriaceae): >99%
- MIC (K. pneumoniae [3]): 4 to 16 µg/mL (≈ 10.4 to 41.7 µM)
